23 molecules from PubChem BioAssay (NCI) can be followed below.

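The compound was tested at five concentrations on cells cultured in 96-well plates, with a 48-hour exposure period. At the GI50, growth is halved. TGI: concentration producing complete growth inhibition.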

Common to all, as to test: growth of human tumour cells (NCI), 48 h
The subject of test [1] is A549 NSCLC.
Test [2] relates to CAKI-1 renal.
In test [3] the test system is OVCAR-3 ovarian.
Test [4] concerns SK-OV-3 ovarian.
Test [5] concerns NCI-H226 lung.
In test [6] the test system is HOP-92 NSCLC.
The test system of test [7] is KM12 colon.
The subject of test [8] is IGROV1 ovarian.
In test [9] the test system is BT-549 breast.
Test [10] relates to NCI/ADR-RES ovarian.

Turning to `CNC(=S)NNc1ncnc2c1c(-c1ccc(Cl)cc1)cn2-c1ccc(C)cc1`, the TGI is 19.2 µM in [1]; 23.2 µM in test [2]; 24 µM in test [3]; 28.9 µM in test [4]; 57.5 µM in test [5]; 30.8 µM in [6]. For the same molecule, the TGI was found to be 22 µM in [7], 25 µM in test [8], 29.2 µM in [9] and 34.4 µM in test [10].

Take `NC(Cc1[nH]nc2ccccc12)C(=O)O` (stereo unspecified): the TGI in test [1], in test [2], in test [3], in [4], in [5] and in test [6] was above 100 µM throughout. Besides, the TGI in test [7], in test [8], in test [9] and in test [10] was above 100 µM in each case.

As for `CCOc1ccc(NCC2CC/C(=C\C=C\c3ccccc3)C2=O)cc1` (stereo unspecified), the TGI is above 100 µM in [1]; above 40.8 µM in test [2]; 34.4 µM in [3]; above 100 µM in [4]; above 100 µM in test [5]; 45.5 µM in test [6]. Further, the TGI was 20.1 µM in test [7], 17.5 µM in test [8], 33 µM in test [9] and above 75.3 µM in test [10].

For `C=C1C[C@@H]2CC[C@@]34C[C@H]5O[C@H]6[C@@H](O3)[C@H]3O[C@H](CC[C@@H]3O[C@H]6[C@H]5O4)CC(=O)C[C@@H]3[C@@H](OC)[C@@H](C[C@H](O)CN)O[C@H]3C[C@H]3O[C@@H](CC[C@@H]1O2)C[C@@H](C)C3=C`, the TGI is above 1 µM in [1]; 0.366 µM in [2]; 0.000836 µM in [3]; 0.286 µM in [4]; 0.00433 µM in [5]; above 1 µM in test [6]. The TGI in test [7] is 0.0104 µM; in test [8] it was above 0.253 µM; in test [9], above 1 µM; in [10], above 1 µM. The GI50 in test [3] is 0.0002 µM.

For the molecule `COc1cc2[nH]c(=O)c3cc(-c4ccccc4)cc4c(Cl)nc(c1OC)c2c43`, the TGI was above 71.7 µM in [1]; 71 µM in test [2]; above 100 µM in [3]; above 73.9 µM in [4]; above 100 µM in [5]; above 79.3 µM in [6]. Further, the TGI in [7] is above 100 µM; in [8], above 91 µM; in test [9] it was above 67 µM; in test [10] it was above 38.3 µM.

On to `O=C(O)C1=NN(c2ccc(S(=O)(=O)O)cc2)C2(C1)C(Cl)C(=O)N2c1nc2ccccc2s1` (stereo unspecified), for which the TGI amounted to 35.2 µM in [1]; 31.5 µM in test [2]; 33.8 µM in [3]; 30.6 µM in test [4]; 41.4 µM in test [5]; 48.8 µM in test [6]. Also, the TGI in test [7] was 34.1 µM; in [8], 21.5 µM; in test [9], 33 µM; in [10], 56.2 µM.

As for `COc1ccc2c(c1)-c1c(c3cc(OC)ccc3n1CCN(C)C)CC2`, the TGI was determined as 29.9 µM in test [1]; 28.8 µM in test [2]; 28.1 µM in test [3]; 37.1 µM in [4]; 30 µM in [5]; 27.7 µM in [6]. The TGI in [7] was 36.7 µM; in [8], 25.9 µM; in test [9], 26.9 µM; in [10], 32 µM.

As for `O=CN1CCN(C(=O)c2ccco2)C1=S`, the TGI in [1] was 26.9 µM; in [2], 18.5 µM; in [3], 15.4 µM; in test [4], 70.8 µM; in test [5], 54.8 µM; in test [6], 18.7 µM. Further, the TGI was 20.1 µM in test [7], 25.3 µM in test [8], 16.8 µM in test [9] and 75.3 µM in test [10].

Regarding `C=C1CC(COc2ccc3c(C)c(C)c(=O)oc3c2C)(c2ccccc2)OC1=O` (stereo unspecified), the TGI is 26.7 µM in [1]; 3.33 µM in test [2]; 9.66 µM in test [3]; 13.4 µM in [4]; 6.73 µM in test [5]; 2.96 µM in test [6]. Also, the TGI in [7] was 9.35 µM; in test [8], 3.47 µM; in test [9], 3.17 µM; in [10] it was 8.24 µM.

As for `O=C(Sc1c(-c2ccccc2)c(=O)n(-c2ccccc2)c(=S)n1-c1ccccc1)c1ccco1`, the TGI was above 100 µM in [1]; above 100 µM in test [2]; above 100 µM in [3]; above 100 µM in test [4]; above 100 µM in [5]; above 92.6 µM in [6]. The TGI in test [7], in [8], in test [9] and in [10] was above 100 µM in each case.

Regarding `O=c1oc2ccccc2c(O)c1C=NC(=S)c1ccncc1`, the TGI in test [1], in test [2], in test [3], in [4], in [5] and in [6] was above 100 µM each time. For the same molecule, the TGI is above 100 µM in test [7], above 100 µM in [8], 94 µM in test [9] and above 100 µM in [10].

With `CN(C)CCCNc1cc(O)c2c(c1O)C(=O)c1ccccc1C2=O`, the TGI was 23.9 µM in test [1]; 25.7 µM in test [2]; 23.5 µM in test [3]; 24.8 µM in test [4]; 35.2 µM in [5]; 29.6 µM in [6]. Moreover, the TGI in test [7] worked out at 21.7 µM; in [8] it was 24.6 µM; in test [9], 34.2 µM; in [10] it was 15.5 µM.

Turning to `O=C1c2cccnc2S(=O)(=O)N1c1ccc([N+](=O)[O-])cc1`, the TGI in test [1], in test [2], in test [3], in [4], in test [5] and in test [6] was above 100 µM each time. In addition, the TGI in test [7], in test [8], in test [9] and in [10] was above 100 µM in each case.

For the molecule `COC(=O)C1=C(C)NC(C)=C(C(=O)OC)C1c1cccc(N=O)c1`, the TGI is above 100 µM in test [1]; 22.4 µM in test [2]; 29 µM in test [3]; 44.3 µM in test [4]; 37.8 µM in [5]; 20.1 µM in [6]. Also, the TGI in [7] was 30.2 µM; in test [8], 30.6 µM; in test [9] it was 31 µM; in test [10], 51 µM.

On to `S=c1[nH]nc(Cn2c3ccc(Br)cc3c3nc4ccccc4nc32)n1C1CCCCC1`, for which the TGI in test [1] is above 64.1 µM; in test [2], above 100 µM; in test [3], above 59.7 µM; in test [4] it was 83.7 µM; in [5], above 76.6 µM; in test [6], 19.6 µM. The TGI in test [7] was above 100 µM; in test [8] it was above 100 µM; in [9], above 83 µM; in [10], above 92 µM.

As for `Cc1cc(OCc2nnc3sc(NC(=O)c4ccccc4)nn23)ccc1Cl`, the TGI in [1] was above 100 µM; in test [2], 36 µM; in test [3], above 100 µM; in test [4] it was above 100 µM; in [5], above 100 µM; in test [6], 34.8 µM. Moreover, the TGI in test [7] was 52.6 µM; in [8], 68 µM; in test [9], above 100 µM; in test [10] it was above 100 µM.

`CC(=O)C1(O)CCC2(O)C3(O)CC=C4CC(O)CCC4(C)C3CC(OC(=O)c3ccc(O)cc3)C12C` (stereo unspecified): the TGI in [1], in test [2], in [3], in [4], in test [5] and in [6] was above 100 µM in each case. Also, the TGI in test [7], in test [8], in test [9] and in test [10] was above 100 µM each time.

Regarding `COc1cc2c3cc1Oc1c(OC)c(OC)cc4c1C(Cc1ccc(O)c(c1)Oc1ccc(cc1)CC3N(C)CC2)CN(C)C4` (stereo unspecified), the TGI came to 63.9 µM in [1]; 44.3 µM in [2]; 30.9 µM in [3]; 47.9 µM in [4]; 68.9 µM in test [5]; 43.4 µM in [6]. In addition, the TGI amounted to 26.3 µM in test [7], 48.9 µM in test [8], 30.2 µM in [9] and 41.7 µM in test [10].

Take `Cc1cn(CCCCCOC(=O)NC(CCCNC(N)=O)C(=O)O)c(=O)[nH]c1=O` (stereo unspecified): the TGI in [1], in test [2], in test [3], in test [4], in test [5] and in [6] was above 100 µM each time. The TGI in test [7], in test [8], in [9] and in [10] was above 100 µM throughout.

Turning to `NC(N)=NS(=O)(=O)c1ccc(NC(=O)c2cccc3c(NNc4ccc(S(N)(=O)=O)cc4)c4ccccc4nc23)cc1`, the TGI in test [1] is above 100 µM; in test [2], above 100 µM; in [3] it was above 100 µM; in [4], above 100 µM; in test [5], above 100 µM; in test [6], 85.6 µM. Further, the TGI in test [7], in test [8], in test [9] and in test [10] was above 100 µM each time.

With `O=C1/C(=C/c2ccc(Cl)cc2)CCCc2ccc(F)cc21`, the GI50 was 26.4 µM in test [1]; 22.5 µM in test [2]; 16.9 µM in test [3]; 24.7 µM in test [4]; 16.8 µM in [5]; 9.3 µM in test [6]. For the same molecule, the GI50 in test [7] is 12.9 µM; in test [8], 14.6 µM; in test [9], 39.8 µM; in [10], 26.6 µM. The TGI in [1] is above 100 µM; in test [2] it was 64.5 µM; in [3] it was 51.4 µM; in test [4], 69.4 µM; in test [5] it was 41.8 µM; in test [6] it was 34 µM. Also, the TGI in [7] was 34.2 µM; in [8], 68.3 µM; in test [9] it was above 100 µM; in [10], 73.5 µM.

`Nc1c(S(N)(=O)=O)cc(S(N)(=O)=O)cc1S(N)(=O)=O`: the TGI in test [1], in [2], in [3], in test [4], in test [5] and in test [6] was above 100 µM each time. Moreover, the TGI in test [7], in test [8], in test [9] and in [10] was above 100 µM throughout.

For `O=P1(C(O)/C=C/c2ccccc2)N(Cc2ccccc2)[C@@H]2CCCC[C@H]2N1Cc1ccccc1` (stereo partly specified), the TGI was 43 µM in test [1]; 65.5 µM in test [2]; 27.8 µM in test [3]; above 100 µM in [4]; 17.2 µM in test [5]; 7.48 µM in test [6]. Also, the TGI in test [7] is 19.5 µM; in test [8] it was 14.4 µM; in [9] it was 34.2 µM; in test [10], 51.6 µM.
